Measurements as given in US10487093B2, “Heterocyclic compounds, in particular 2-oxo-4,4,5,5,6,6,7,7-octahydrobenzoxazole derivatives, and their use as antibacterial compounds” (priority 2016, dated 2019).
In brackets after ≈: the same amount, converted by molar mass.

Legend:
[1] = tested on: Pseudomonas aeruginosa ATCC 27853; test: MIC, broth microdilution (CLSI) versus planktonic bacteria; format: cell-based; conditions: ATCC27853; Pseudomonas aeruginosa ATCC 27853; 16-20 h; mode of three independent experiments; read-out: MIC, Pa ATCC 27853
[2] = tested on: Haemophilus influenzae ATCC 49247; test: as above; format: cell-based; conditions: ATCC49247; Haemophilus influenzae ATCC 49247; 16-20 h; mode of three independent experiments; read-out: MIC, Hi ATCC 49247
[3] = tested on: Enterococcus faecium ATCC 19434; test: as above; format: cell-based; conditions: ATCC19434, 16-20 h, mode of three independent experiments, read-out: MIC, Efm ATCC 19434
[4] = tested on: Streptococcus pneumoniae ATCC 49619; test: as above; format: cell-based; conditions: ATCC49619; Streptococcus pneumoniae ATCC 49619; 16-20 h; mode of three independent experiments; read-out: MIC, Sp ATCC 49619
E. coli MG1655 S83L = format: cell-based, Escherichia coli; conditions: compared to the isogenic parent strain E. coli MG1655; S83L mutation on DNA gyrase subunit GyrA
[5] = tested on: fluoroquinolone-resistant Enterococcus faecium ATCC 700221; test: MIC, broth microdilution (CLSI) versus planktonic bacteria; format: cell-based; conditions: ATCC700221, 16-20 h, mode of three independent experiments, read-out: MIC, Efm ATCC 700221
[6] = tested on: Mycobacterium smegmatis ATCC 19420; test: as above; format: cell-based; conditions: Mycolicibacterium smegmatis, ATCC19420, 16-20 h, mode of three independent experiments, read-out: MIC, Ms ATCC 19420
E. coli ATCC BAA-2452 = test: as above; format: cell-based; conditions: Escherichia coli ATCC BAA-2452; 16-20 h; mode of three independent experiments; read-out: MIC, Ec ATCC BAA 2452
[7] = tested on: Gram-negative and Gram-positive bacterial strains; format: cell-based; conditions: strain panel of Table 1
E. coli NCTC 13476 = test: MIC, broth microdilution (CLSI) versus planktonic bacteria; format: cell-based; conditions: NCTC13476; Escherichia coli NCTC 13476; 16-20 h; mode of three independent experiments; read-out: MIC, Ec NCTC 13476
[8] = tested on: Acinetobacter baumannii NCTC 13420; test: as above; format: cell-based; conditions: NCTC13420; Acinetobacter baumannii NCTC 13420; 16-20 h; mode of three independent experiments; read-out: MIC, Ab NCTC 13420
[9] = tested on: Acinetobacter baumannii ATCC 19606; test: as above; format: cell-based; conditions: ATCC19606; Acinetobacter baumannii ATCC 19606; 16-20 h; mode of three independent experiments; read-out: MIC, Ab ATCC 19606
E. coli MG1655 = test: as above; format: cell-based, Escherichia coli; conditions: Escherichia coli, MG1655, read-out: MIC, Ec MG1655 WT
[10] = tested on: Enterobacter cloacae NCTC 13406; test: as above; format: cell-based; conditions: NCTC13406; Enterobacter cloacae NCTC 13406; 16-20 h; mode of three independent experiments; read-out: MIC, Ecl NCTC 13406
[11] = tested on: Enterococcus faecalis ATCC 29212; test: as above; format: cell-based; conditions: ATCC29212, 16-20 h, mode of three independent experiments, read-out: MIC, Ef ATCC 29212
[12] = tested on: Escherichia coli ATCC 25922; test: as above; format: cell-based; conditions: ATCC25922; Escherichia coli ATCC 25922; 16-20 h; mode of three independent experiments; read-out: MIC, Ec ATCC 25922
[13] = tested on: Neisseria meningitidis ATCC 13090; test: as above; format: cell-based; conditions: ATCC13090, 16-20 h, mode of three independent experiments
[14] = tested on: Staphylococcus aureus ATCC 29213; test: as above; format: cell-based; conditions: ATCC29213; Staphylococcus aureus ATCC 29213; 16-20 h; mode of three independent experiments; read-out: MIC, Sa ATCC 29213
[15] = tested on: human hepatic cell line (HepG2 ATCC HB-8065); test: Human cell viability assay (CellTiter-Glo); conditions: Homo sapiens, HepG2, 24 h, read-out: IC50 (μg/mL) HepG2
E. coli MG1655 D87G = format: cell-based, Escherichia coli; conditions: compared to the isogenic parent strain E. coli MG1655; D87G mutation on DNA gyrase subunit GyrA
Yersinia pestis CO92 = test: microbe, parasite or virus in culture; format: cell-based; conditions: CO92, read-out: MIC, Yersinia pestis CO92
Bacillus anthracis Ames = test: microbe, parasite or virus in culture; format: cell-based; conditions: 24 h, read-out: MIC, Bacillus anthracis Ames
[16] = tested on: Francisella tularensis SCHU S4; test: microbe, parasite or virus in culture; format: cell-based; conditions: SCHUS4, 38 h, read-out: MIC, Francisella tularensis SCHU S4
[17] = tested on: Burkholderia pseudomallei 1026b; test: microbe, parasite or virus in culture; format: cell-based; conditions: 24 h, read-out: MIC, Burkholderia pseudomallei 1026b
[18] = tested on: Burkholderia pseudomallei DD503; test: microbe, parasite or virus in culture; format: cell-based; conditions: DD503, 24 h, read-out: MIC, Burkholderia pseudomallei DD503
[19] = tested on: Burkholderia mallei China 7; test: microbe, parasite or virus in culture; format: cell-based; conditions: CHINA7, 24 h, read-out: MIC, Burkholderia mallei China 7
[20] = tested on: Burkholderia pseudomallei K96243; test: microbe, parasite or virus in culture; format: cell-based; conditions: K96243, 24 h, read-out: MIC, Burkholderia pseudomallei K96243

| Structure (SMILES) | MIC [1] | MIC [2] | MIC [3] | MIC [4] | Fold increase in MIC, E. coli MG1655 S83L (E. coli MG1655 S83L) | MIC [5] | MIC [6] | MIC (E. coli ATCC BAA-2452) | activity against both Gram-negative and Gram-positive bacteria (in words) [7] | MIC (E. coli NCTC 13476) | MIC [8] | MIC [9] | MIC (E. coli MG1655) | MIC [10] | MIC [11] | MIC [12] | MIC [13] | MIC [14] | IC50 [15] | Fold increase in MIC, E. coli MG1655 D87G (E. coli MG1655 D87G) | also measured |
| --- | --- | --- | --- | --- | --- | --- | --- | --- | --- | --- | --- | --- | --- | --- | --- | --- | --- | --- | --- | --- | --- |
| COc1ccc2ccc(=O)n(CCN[C@@H]3CC[C@@H]4[C@@H](C3)OC(=O)N4c3ccc4c(n3)NC(=O)CO4)c2n1 [Compound 1, 1-(2-{[(3aR,6R,7aR)-2-oxo-3-{3-oxo-2H,3H,4H-pyrido[3,2-b][1,4]oxazin-6-yl}-octahydro-1,3-benzoxazol-6-yl]amino}ethyl)-7-methoxy-1,2-dihydro-1,8-naphthyridin-2-one] | < 1 µg/mL | < 1 µg/mL | < 1 µg/mL | < 1 µg/mL | 1 fold | < 1 µg/mL | < 1 µg/mL | < 1 µg/mL | excellent activity | < 1 µg/mL | < 1 µg/mL | < 1 µg/mL | < 1 µg/mL | < 1 µg/mL | < 1 µg/mL | < 1 µg/mL | < 1 µg/mL | < 1 µg/mL | > 100 µg/mL | 1 fold |  |
| COc1ncc2ccc(=O)n(CCN[C@@H]3CC[C@@H]4[C@@H](C3)OC(=O)N4c3ccc4c(n3)NC(=O)CO4)c2n1 [Compound 2, (3aR,6R,7aR)-6-[(2-{2-methoxy-7-oxo-7H,8H-pyrido[2,3-d]pyrimidin-8-yl}ethyl)amino]-3-(3-oxo-2H,3H,4H-pyrido[3,2-b][1,4]oxazin-6-yl}-octahydro-1,3-benzoxazol-2-one] | 1 to 10 µg/mL (≈ 1.97 to 19.7 µM) | < 1 µg/mL |  | < 1 µg/mL | 1 fold |  | < 1 µg/mL | < 1 µg/mL |  | 1 to 10 µg/mL (≈ 1.97 to 19.7 µM) | < 1 µg/mL | < 1 µg/mL | < 1 µg/mL | < 1 µg/mL |  | < 1 µg/mL | < 1 µg/mL | < 1 µg/mL | > 100 µg/mL | 1 fold | MIC (Yersinia pestis CO92): < 1 µg/mL; MIC (Bacillus anthracis Ames): < 1 µg/mL; MIC [16]: 1 to 4 µg/mL (≈ 1.97 to 7.88 µM); MIC [17]: 1 to 4 µg/mL (≈ 1.97 to 7.88 µM); MIC [18]: 1 to 4 µg/mL (≈ 1.97 to 7.88 µM); MIC [19]: 1 to 4 µg/mL (≈ 1.97 to 7.88 µM); MIC [20]: 1 to 4 µg/mL (≈ 1.97 to 7.88 µM) |
| COc1ccc2ccc(=O)n(CCCN[C@@H]3CC[C@@H]4[C@@H](C3)OC(=O)N4c3ccc4c(n3)NC(=O)CO4)c2n1 [Compound 76, 1-(3-{[(3aR,6R,7aR)-2-oxo-3-{3-oxo-2H,3H,4H-pyrido[3,2-b][1,4]oxazin-6-yl}-octahydro-1,3-benzoxazol-6-yl]amino}propyl)-7-methoxy-1,2-dihydro-1,8-naphthyridin-2-one] | < 1 µg/mL | < 1 µg/mL | < 1 µg/mL | < 1 µg/mL | 2 fold | < 1 µg/mL |  | < 1 µg/mL | excellent activity | < 1 µg/mL | < 1 µg/mL | < 1 µg/mL | < 1 µg/mL | < 1 µg/mL | < 1 µg/mL | < 1 µg/mL |  | < 1 µg/mL | 10 to 100 µg/mL (≈ 19.2 to 192 µM) | 2 fold |  |
| C[C@H]1c2cccc(O)c2C(=O)C2=C(O)[C@]3(O)C(=O)C(C(N)=O)=C(O)[C@@H](N(C)C)[C@@H]3[C@@H](O)[C@@H]21 [DOX, doxycycline, reference compound] |  |  |  |  |  |  |  |  |  |  |  |  |  |  |  |  |  |  |  |  | MIC (Yersinia pestis CO92): 1 to 4 µg/mL (≈ 2.25 to 9 µM); MIC (Bacillus anthracis Ames): < 1 µg/mL; MIC [16]: < 1 µg/mL; MIC [17]: 1 to 4 µg/mL (≈ 2.25 to 9 µM); MIC [18]: 1 to 4 µg/mL (≈ 2.25 to 9 µM); MIC [19]: < 1 µg/mL; MIC [20]: 1 to 4 µg/mL (≈ 2.25 to 9 µM) |
